# What was measured:
# [1] = tested on: CFU-Fs (MSPCs); test: Mobilization of MSPCs into peripheral blood (CFU-F assay); type: in vivo, mice
# [2] = tested on: HSPCs; test: Mobilization of HSPCs into peripheral blood (CFU-HPC assay); type: in vivo; details: mice pre-treated with 0-30 mg/kg BRL37344 for 4 days
# [3] = tested on: endocannabinoids and N-acyl ethanolamides; test: Lipid mediator quantification in bone marrow by UPLC/ESI-MS/MS; type: in vivo, mice
# Method: Plasma and bone marrow flush (pool of 3 mice, n=1) were processed in order for the extraction of endocannabinoids and congeners (Astarita and Piomelli, 2009; Kingsley and Marnett, 2009). Samples were analysed on an electrospray (ESI) tandem quadrupole Xevo TQ-S mass spectrometer (MS/MS; Waters) coupled to an Acquity Ultrahigh Pressure Chromatography (UPLC) system, and the concentration of analytes was calculated (TargetLynx). Further details concerning extraction and analysis can be found in the Supplemental Experimental Procedures.
# Bone marrow flushed from the femurs of 3 mice were pooled (6 ml in total) per treatment to give an n=1 sample. This volume was required to achieve sufficient concentrations of endocannabinoids and N-acyl ethanolamides for detection by UPLC/ESI-MS/MS. Extraction of lipids was carried out by addition of chloroform:methanol (2:1, v/v) (Astarita and Piomelli, 2009; Kingsley and Mamett, 2009). Specifically, ice cold chloroform:methanol was added to each bone marrow supernatant (ml per pooled bone marrow sample), followed by the internal standards AEA-d8 (20 ng) and 2AG-d8 (40 ng). The resulting suspensions were kept on ice for 30 min with occasional vortexing and centrifuged at 5000 rpm for 8 min, to separate the organic and aqueous phases. The organic layer (bottom) from each sample was then removed into a clean vial. The supernatant was evaporated under a fine stream of nitrogen. Once dried the extract was reconstituted in 1 ml of chloroform and semi-purified by SPE (Guo et al, 2010). Briefly, the silica cartridge was equilibrated with 5×1 ml cholorform, the extract was applied, the cartridge was washed with 2×1 ml chloroform and the endocannabinoids eluted with 5×1 ml chloroform:methanol (2:1 v/v). The remaining residue, reconstituted in 100 μL ethanol was stored at −20° C., for no more than 1 week, awaiting UPLC/ESI-MS/MS analysis.
# All analysis was performed on an electrospray (ESI) tandem quadrupole Xevo TQ-S mass spectrometer (Waters) coupled to an Acquity Ultrahigh Pressure Chromatography (UPLC) system. The system was controlled by MassLynx v4.1 Software. TargetLynx was used to construct calibration lines and calculate the concentration of analytes of interest. Optimised ESI-MS/MS conditions were achieved through the use of Intellistart within MassLynx software. Individual standards (100 pg/μl) were introduced into the spectrometer by direct infusion via the Xevo TQ-S integrated syringe pump (flow rate 10 μl/min) combined with UPLC solvent flow (rate 0.2 mL/min). All analytes were monitored on the positive ionisation mode. Capillary voltage was set at 2000V, source temperature at 150° C., desolvation temperature at 400° C. and the cone voltage at 20 V. […]
# [4] = 4 days, in combination with FAAH inhibition, versus FAAH inhibition only
smiles,measurement,setting,value
C[C@H](Cc1ccc(OCC(=O)O)cc1)NC[C@H](O)c1cccc(Cl)c1 [BRL37344],pre-treatment time needed for CFU-F mobilization,"[1]; 2 h versus 4 d pre-treatment, then AMD3100",required the pre-treatment of mice over 4 days to see this effect
same,dose dependence of CFU-F mobilization in response to the CXCR4 antagonist,"[1]; mouse, in vivo",dose response relationship
same,circulating CFU-Fs,"[1]; pre-treated once daily for 4 days, then AMD3100, blood 1 hour later",significantly boosted circulating numbers of HSPCs and CFU-Fs as compared to that observed with isoproterenol and AMD3100 in combination
same,dose dependence of HSPC mobilization in response to the CXCR4 antagonist,[2],dose response relationship
same,bone marrow levels of 2-AG,[3]; [4],significantly increased
same,bone marrow levels of DHEA,[3]; [4],significantly increased
same,bone marrow levels of PEA,[3]; [4],significantly increased
same,"bone marrow levels of other N-acyl ethanolamides, including AEA",[3]; following administration in vivo,remained unchanged

# Source: patent publication US20170355959A1, “METHODS FOR MOBILISING POPULATIONS OF STEM CELLS” (Imperial Innovations Limited, priority 2014, published 2017)
